Assay results as given in ChEMBL document CHEMBL5661943, “ASAP - In vitro antiviral effect” (2024).
Values joined by “and” are separate entries in the source; they are usually repeats but may differ in a detail not shown here. Equal entries are not always repeated.

Columns and labels:
dengue virus type 2 [1] = assay: Functional assay to measure dose dependent changes in antiviral-drug inhibitory efficacy against Dengue virus type 2 New Guinea C in Vero E6 miRFP670 cells (cotreated with P-gp inhibitor, CP100356). Cells are treated with antiviral candidates that are serially diluted, following infection, cells are fixed. EC50 is reported via analysis of fluorescence intensity using high-content imager. The …; format: organism-based, Chlorocebus sabaeus, Vero C1008; settings: for EC90: P-gp concentration 500 nM, P-gp inhibitor CP100356
Zika virus [2] = assay: EC50 is reported via analysis of immunofluorescence staining. The assay has been performed by Icahn School of Medicine at Mount Sinai.; format: functional, organism-based, Chlorocebus sabaeus, VeroE6/TMPRSS2; settings: for EC90: P-gp concentration 2 uM, P-gp inhibitor Elacidar
Zika virus [3] = assay: Functional CPE-based assay to measure dose dependent changes in antiviral-drug inhibitory efficacy against Zika virus MR766 in Vero E6 miRFP670 cells (cotreated with P-gp inhibitor, CP100356). Cells are treated with antiviral candidates that are serially diluted. EC50 is reported via analysis of MTS assay as a readout of CPE. The assay has been performed by KU Leuven.; format: organism-based, Chlorocebus sabaeus, Vero C1008; settings: for EC90: Baseline response 0 %, Maximum response 100 %, P-gp concentration 500 nM, P-gp inhibitor CP100356
dengue virus type 2 [4] = assay: Functional immunofluorescence assay to measure dose dependent changes in antiviral-drug inhibitory efficacy against Dengue virus type 2 Thailand/16681/84 in Vero E6/TMPRSS2 cells (cotreated with P-gp inhibitor, Elacridar). Cells are treated with antiviral candidates that are serially diluted, following infection, cells are fixed. EC50 is reported via analysis of immunofluorescence staining. The assay has been performed by Icahn School of Medicine at Mount Sinai.; format: organism-based, Chlorocebus sabaeus, VeroE6/TMPRSS2; settings: Dengue virus; for EC90: P-gp concentration 2 uM, P-gp inhibitor Elacidar

In the case of `COCCNC(=O)[C@H](Nc1ccc2c(c1)CNC2)c1cc(Cl)cc(C2CC2)c1`, the EC50 (dengue virus type 2 [1]; Dengue virus, Vero C1008) is reported as 40.2 µM, the EC90 (dengue virus type 2 [1]; Dengue virus, Vero C1008, Maximum measured 154.141 %, Minimum measured 87.25 %) is reported as over 50 µM and the EC90 (dengue virus type 2 [1]; Dengue virus, Vero C1008, Baseline response 0 %, Hill slope -1.76, Maximum measured 106.994 %, Maximum response 100 %, Minimum measured 48.696 %, R squared 0.783) is reported as over 50 µM. For the same compound, the EC50 (dengue virus type 2 [1]; vero c1008) was over 50 µM, the EC90 (Zika virus [2]; Baseline response 0 %, Hill slope -0.71, Maximum measured 110.043 %, Maximum response 100 %, Minimum measured 53.247 %, R squared 0.662) was over 5.56 µM and the EC50 (Zika virus [2]; Zika virus, VeroE6/TMPRSS2) was over 5.56 µM. For the same compound, the EC90 (Zika virus [2]; Zika virus, VeroE6/TMPRSS2, Baseline response 0 %, Hill slope -0.244, Maximum measured 65.627 %, Maximum response 50 %, Minimum measured 21.531 %, R squared 0.09) was over 5.56 µM, the EC90 (Zika virus [3]; EC90 CI (lower) 3.438 uM, EC90 CI (upper) 13.705 uM, Hill slope 5.727, Maximum measured 103.141 %, Minimum measured 2.231 %, R squared 0.527) was 6.86 µM and the EC90 (Zika virus [3]; Hill slope 2.264, Maximum measured 83.807 %, Minimum measured -2.671 %, R squared 0.978) was over 50 µM. The EC50 (Zika virus [3]; vero c1008) was 26 µM and 4.68 µM.
`Nc1cc(Cl)cc(C(=O)Nc2ccc3c(c2)CNC3)c1N` gave an EC50 (dengue virus type 2 [4]; VeroE6/TMPRSS2) of 41.9 µM, an EC90 (dengue virus type 2 [4]; VeroE6/TMPRSS2, Baseline response 0 %, Hill slope -3.096, Maximum measured 144.717 %, Maximum response 100 %, Minimum measured 36.673 %, R squared 0.131) of over 50 µM and an EC50 (dengue virus type 2 [1]; Dengue virus, Vero C1008) of over 50 µM. For the same compound, the EC90 (dengue virus type 2 [1]; Dengue virus, Vero C1008, Baseline response 0 %, Hill slope 0.309, Maximum measured 103.631 %, Maximum response 100 %, Minimum measured 71.641 %, R squared 0.1) was over 50 µM, the EC50 (Zika virus [3]; Zika virus, Vero C1008) was over 50 µM and the EC90 (Zika virus [3]; Zika virus, Vero C1008, Hill slope 0.699, Maximum measured 36.917 %, Minimum measured 3.264 %, R squared 0.811) was over 50 µM.
`O=C(Nc1ccc2c(c1)CNC2)c1cc(Br)cc2[nH]c([C@H]3CCOC3)nc12` was tested, and the EC50 (dengue virus type 2 [1]; Dengue virus, Vero C1008) was over 3.12 µM, the EC90 (dengue virus type 2 [1]; Dengue virus, Vero C1008, Baseline response 0 %, Hill slope -2.03, Maximum measured 96.655 %, Maximum response 100 %, Minimum measured 50.768 %, R squared 0.853) was over 3.12 µM and the EC50 (Zika virus [2]; Zika virus, VeroE6/TMPRSS2) was over 5.56 µM. The EC90 (Zika virus [2]; Zika virus, VeroE6/TMPRSS2, Maximum measured 90.854 %, Minimum measured 45.403 %) was over 5.56 µM, the EC50 (Zika virus [3]; Zika virus, Vero C1008) was 0.918 µM and the EC90 (Zika virus [3]; Zika virus, Vero C1008, Hill slope 2.359, Maximum measured 80.04 %, Minimum measured 15.463 %, R squared 0.714) was over 1.56 µM.
`N#C[C@H](Nc1ccc2c(c1)CNC2)c1cc(Cl)cc(C2CC2)c1` gave an EC50 (dengue virus type 2 [4]; VeroE6/TMPRSS2) of over 16.7 µM, an EC90 (dengue virus type 2 [4]; VeroE6/TMPRSS2, Maximum measured 136.887 %, Minimum measured 85.602 %) of over 16.7 µM and an EC50 (dengue virus type 2 [1]; Dengue virus, Vero C1008) of 45.6 µM. For the same compound, the EC90 (dengue virus type 2 [1]; Dengue virus, Vero C1008, Baseline response 0 %, Hill slope -4.312, Maximum measured 125.602 %, Maximum response 100 %, Minimum measured 40.399 %, R squared 0.668) was over 50 µM, the EC50 (Zika virus [3]; Zika virus, Vero C1008) was 19.3 µM and the EC90 (Zika virus [3]; Zika virus, Vero C1008, Hill slope 4.333, Maximum measured 75.439 %, Minimum measured -2.703 %, R squared 0.979) was over 25 µM.
`CCc1cc(Cl)cc(C(=O)Nc2ccc3c(c2)CNC3)c1` showed an EC50 (dengue virus type 2 [4]; VeroE6/TMPRSS2) of over 16.7 µM and an EC90 (dengue virus type 2 [4]; VeroE6/TMPRSS2, Baseline response 0 %, Hill slope -0.226, Maximum measured 109.554 %, Maximum response 100 %, Minimum measured 84.826 %, R squared 0.106) of over 16.7 µM.
For `NCc1cccc(NC(=O)C[C@H](NC(=O)OCc2ccccc2)c2ccc(OCc3ccccc3)c(Br)c2)c1`, the EC50 (dengue virus type 2 [4]; VeroE6/TMPRSS2) was over 16.7 µM, the EC90 (dengue virus type 2 [4]; VeroE6/TMPRSS2, Baseline response 0 %, Hill slope 0.065, Maximum measured 60.527 %, Maximum response 100 %, Minimum measured 30.522 %, R squared 0.087) was over 16.7 µM and the EC50 (Zika virus [2]; Zika virus, VeroE6/TMPRSS2) was 1.7 µM. For the same compound, the EC90 (Zika virus [2]; Zika virus, VeroE6/TMPRSS2, Baseline response 0 %, Hill slope -0.518, Maximum measured 120.113 %, Maximum response 100 %, Minimum measured 9.459 %, R squared 0.639) was over 50 µM.
With `O=C(Nc1ccc2c(c1)CNC2)c1cc(Cl)cc2[nH]c(-c3c[nH]c(=O)c(Br)c3)nc12` the EC50 (dengue virus type 2 [1]; Dengue virus, Vero C1008) was over 50 µM, the EC90 (dengue virus type 2 [1]; Dengue virus, Vero C1008, Maximum measured 259.566 %, Minimum measured 84.768 %) was over 50 µM and the EC50 (Zika virus [3]; Zika virus, Vero C1008) was over 50 µM. It also gave an EC90 (Zika virus [3]; Zika virus, Vero C1008, Hill slope 0.525, Maximum measured 33.05 %, Minimum measured 2.151 %, R squared 0.865) of over 50 µM.
